Marks after values point to notes of the source that are not given here.

A short description of this series: logP determination via retention times, calibrated with unbranched alkan-2-ones. Type of series: physicochemical.
Where [1] appears, read: HPLC on reversed-phase C18, method *: 40° C., 0.1% aqueous formic acid and acetonitrile, linear gradient 10% to 95% acetonitrile.
[2] abbreviates: HPLC reversed-phase C 18, EEC Directive 79/831 Annex V.A8, method *: 40° C., 0.1% aqueous formic acid and acetonitrile, linear gradient 10% to 95% acetonitrile.
The mark [3] stands for this setting: method **: HPLC reversed-phase C 18, temperature 43° C., mobile phase 0.1% aqueous phosphoric acid and acetonitrile, linear gradient 10% to 95% acetonitrile.
Setting [4] is: HPLC on reversed-phase C18 column (EEC Directive 79/831 Annex V.A8), method *: 40° C., 0.1% aqueous formic acid and acetonitrile, linear gradient 10% to 95% acetonitrile.
[5] abbreviates: method *: HPLC reversed-phase C18, 40° C., 0.1% aqueous formic acid and acetonitrile, linear gradient 10% to 95% acetonitrile.
[6] abbreviates: method *: HPLC reversed-phase C 18, temperature 40° C., mobile phase 0.1% aqueous formic acid and acetonitrile, linear gradient 10% to 95% acetonitrile.
The mark [7] stands for this setting: method *: HPLC, reversed-phase C 18, 40° C., mobile phase 0.1% aqueous formic acid and acetonitrile, linear gradient from 10% to 95% acetonitrile.
Where [8] appears, read: HPLC on reversed-phase C18, method *: 40° C., mobile phase 0.1% aqueous formic acid and acetonitrile, linear gradient 10% to 95% acetonitrile.
The mark [9] stands for this setting: method **: HPLC reversed-phase C 18, 43° C., 0.1% aqueous phosphoric acid and acetonitrile, linear gradient 10% to 95% acetonitrile.
[10] abbreviates: HPLC on reversed-phase C 18, EEC Directive 79/831 Annex V.A8, method *: 40° C., 0.1% aqueous formic acid and acetonitrile, linear gradient 10% to 95% acetonitrile.

Turning to `NS(=O)(=O)c1cc(Nc2ncc(Cl)c(NCC3CC3)n2)ccc1Cl` [compound 693], the logP under setting [1] is 1.83*.

For the molecule `COc1cc(CC#N)ccc1Nc1ncc(Cl)c(NC2CC2)n1` [compound 817], under setting [2], the logP was 1.82*.

In the case of `Brc1cnc(Nc2cccc(N3CCCC3)c2)nc1NC1CC1` [compound 621], the logP under setting [3] is recorded as 2.38**.

On to `COCc1cccc(Nc2ncc(Br)c(NC3CC3)n2)c1` [compound 269], for which, under setting [4], the logP is 1.8*.

For the molecule `CCCc1ccc(Nc2ncc(Cl)c(NC3CC3)n2)cc1` [compound 953], the logP under setting [1] is given as 2.5*.

Turning to `CC(C)(C)c1ccc(Nc2ncc(Cl)c(NC3CC3)n2)cc1` [compound 829], under setting [2], the logP is on record as 2.92*.

For `CCC(=O)c1ccc(Nc2ncc(Cl)c(NC3CC3)n2)cc1` [compound 257], the logP under setting [4] is recorded as 2.34*.

Take `Cc1cnc(Nc2ccccc2)nc1NC1CC1` [Example 51]: the logP under setting [5] was 1.5*.

As for `CNC(=O)c1cccc(Nc2ncc(C(F)(F)F)c(NC3CC3)n2)c1` [compound 652], the logP is recorded as 1.78** under setting [3] and 1.78*; under setting [6].

Regarding `Cc1ccc(Nc2ncc(Cl)c(NC3CC3)n2)cc1CC#N` [compound 819], under setting [2], the logP is listed as 1.79*.

Turning to `CCOC(=O)Cc1ccc(Nc2ncc(Cl)c(NC3CC3)n2)cc1` [compound 247], the logP under setting [4] was 1.99*.

Consider `CC(C)Sc1cccc(Nc2ncc(Br)c(NC3CC3)n2)c1` [compound 707], for which the logP under setting [1] is listed as 3.38*.

As for `CCOc1cccc(Nc2ncc(Br)c(NC3CC3)n2)c1` [compound 751], the logP under setting [1] is 2.18*.

As to `O=S(=O)(Cc1cccc(Nc2ncc(Cl)c(NC3CC3)n2)c1)Nc1ccccc1` [compound 370], the logP under setting [5] is reported as 2.15*.

Turning to `O=C(c1cccc(Nc2ncc(Cl)c(NC3CC3)n2)c1)N1CCNCC1` [compound 1065], the logP under setting [7] is reported as 0.53*.

Consider `Clc1cnc(Nc2cccc(Cl)c2Cl)nc1NC1CC1` [compound 937], for which, under setting [1], the logP is 3.76*.

For the molecule `Clc1cnc(Nc2ccccc2Br)nc1NC1CC1` [compound 871], the logP under setting [1] is given as 2.7*.

For the molecule `CC(C)(C)C(=O)Nc1ccc(Nc2ncc(Br)c(NCC3CC3)n2)cc1` [compound 450], the logP under setting [5] was 1.99*.

For the molecule `FC(F)Oc1cccc(Nc2ncc(Br)c(NC3CC3)n2)c1` [compound 332], the logP under setting [8] is listed as 2.66*.

Turning to `O=S(=O)(Cc1ccc(Nc2ncc(Cl)c(NC3CC3)n2)cc1)Nc1ccccc1` [compound 369], under setting [5], the logP is 2.18*.

As to `CCC(=O)Nc1ccc(Nc2ncc(C(F)(F)F)c(NC3CC3)n2)cc1` [compound 710], the logP under setting [1] is recorded as 1.93*.

For the molecule `Ic1cnc(Nc2ccccc2)nc1NC1CC1` [compound 364], under setting [5], the logP is given as 1.82*.

As to `CN(C)S(=O)(=O)c1ccc(Nc2ncc(Cl)c(NCC3CC3)n2)cc1` [compound 14], the logP under setting [9] is listed as 2.36**.

As to `CCc1cccc(Nc2ncc(Cl)c(NC3CC3)n2)c1` [compound 634], under setting [6], the logP was 2.35*.

In the case of `CN(C)S(=O)(=O)Cc1cccc(Nc2ncc(Cl)c(NC3CC3)n2)c1` [compound 431], the logP under setting [5] is given as 1.62*.

With `Clc1cnc(Nc2ccc(NC3CC3)nc2)nc1NC1CC1` [compound 186], under setting [4], the logP is given as 0.92*.

As for `CC(=O)N(C)c1ccc(Nc2ncc(F)c(NC3CC3)n2)cc1` [compound 582], the logP under setting [6] is on record as 1.23*.

With `O=C1CCCN1c1cc(Nc2ncc(Cl)c(NC3CC3)n2)ccc1Cl` [compound 368], under setting [9], the logP is given as 1.9**.

Regarding `COc1ccc(Nc2ncc(Cl)c(NC3CC3)n2)cn1` [compound 92], under setting [5], the logP is on record as 1.34*.

With `CC(C)(C)NC(=O)c1ccc(Nc2ncc(Br)c(NCC3CC3)n2)cc1` [compound 426], the logP under setting [5] was 2.3*.

For the molecule `CC1COC(=O)N1c1ccc(Nc2ncc(Br)c(NCC3CC3)n2)cc1` (stereo not shown) [compound 118], the logP under setting [1] was 1.72*.

Consider `Clc1ncc(Cl)c(NCC2CC2)n1` [2,5-dichloro-N-(cyclopropylmethyl)pyrimidine-4-amine], for which, under “pH 2.3, read-out: logP (pH2.3)”, the chromatographic logP worked out at 2.51.

Take `C=CC(=O)Nc1cccc(Nc2ncc(Br)c(NCC3CC3)n2)c1` [compound 482]: the logP under setting [10] is given as 1.66*.

Regarding `CC(C)c1cccc(Nc2ncc(Br)c(NC3CC3)n2)c1` [compound 363], under setting [8], the logP is listed as 2.8*.

Turning to `CC(=O)CCc1cccc(Nc2ncc(C(F)(F)F)c(NC3CC3)n2)c1` [compound 959], under setting [1], the logP is 2.68*.

In the case of `COc1cc(Nc2ncc(Cl)c(NCC3CC3)n2)cc(OC)c1` [compound 11], the logP under setting [9] is reported as 2.09**.

For `O=CNc1cccc(Nc2ncc(Cl)c(NCC3CC3)n2)c1` [compound 546], the logP under setting [10] is reported as 1.46*.

In the case of `Fc1cc(C(F)(F)F)ccc1Nc1ncc(Cl)c(NC2CC2)n1` [compound 934], under setting [1], the logP was 3.68*.

Consider `O=C1OCCN1c1cccc(Nc2ncc(Br)c(NC3CC3)n2)c1` [compound 842], for which, under setting [2], the logP is listed as 1.51*.

Turning to `O=S(=O)(c1cccc(Nc2ncc(C(F)(F)F)c(NCC3CC3)n2)c1)N1CCCCC1` [compound 209], the logP under setting [4] was 3.81*.

`COc1cc(Nc2ncc(C(F)(F)F)c(NC3CC3)n2)ccc1F` [compound 635]: the logP under setting [6] is on record as 2.99*.

On to `CC(=O)Nc1cc(Nc2ncc(Cl)c(NCC3CC3)n2)ccc1C` [compound 679], for which the logP under setting [1] was 1.49*.

As to `CS(=O)(=O)c1cccc(Nc2ncc(Br)c(NC3CC3)n2)c1` [compound 254], the logP under setting [4] is recorded as 1.76*.

For `CN(C)S(=O)(=O)c1cccc(Nc2ncc(Cl)c(NC3CC3)n2)c1` [Example 28], the logP under setting [9] is 2.04**.

As to `CN(C)C(=O)c1ccc(Nc2ncc(C(F)(F)F)c(NCC3CC3)n2)cc1` [compound 206], the logP under setting [4] is given as 2.13*.

`N#Cc1cc(Nc2ncc(Cl)c(NC3CC3)n2)c(F)cc1Cl` [compound 936]: under setting [1], the logP is 3.33*.

For `O=C1COCCN1c1ccc(Nc2ncc(Br)c(NC3CC3)n2)cc1` [compound 500], the logP under setting [10] is 1.29*.

Regarding `CN(C)S(=O)(=O)c1ccc(Nc2ncc(Br)c(NC3CC3)n2)cc1` [compound 346], the logP under setting [8] was 2.33*.

Regarding `CCSc1cccc(Nc2ncc(Br)c(NC3CC3)n2)c1` [compound 708], under setting [1], the logP is recorded as 2.92*.

`O=C1CCCN1c1cc(Nc2ncc(Cl)c(NC3CC3)n2)ccc1F` [compound 536]: the logP under setting [10] is 1.53*.

`CC(C)CSc1cccc(Nc2ncc(Cl)c(NC3CC3)n2)c1` [compound 435]: the logP under setting [5] is given as 3.75*.

As for `CC(Cl)c1cccc(Nc2ncc(C(F)(F)F)c(NCC3CC3)n2)c1` (stereo not shown) [compound 703], the logP under setting [1] is reported as 3.89*.

Take `CCNC(=O)c1cccc(Nc2ncc(C(F)(F)F)c(NC3CC3)n2)c1` [compound 1031]: the logP under setting [7] is on record as 2.07*.

With `Clc1ccc(Nc2ncc(Cl)c(NC3CC3)n2)cc1` [compound 285], the logP under setting [8] is reported as 2.54*.

Regarding `CCN(C(C)=O)c1ccc(Nc2ncc(F)c(NC3CC3)n2)cc1` [compound 581], under setting [6], the logP is given as 1.38*.

For the molecule `Clc1cnc(Nc2ccccc2Oc2ccccc2)nc1NC1CC1` [compound 901], the logP under setting [1] was 3.14*.

As to `CCCCCCCCSc1cccc(Nc2ncc(Cl)c(NC3CC3)n2)c1.Cc1ccc(S(=O)(=O)O)cc1` [compound 442], the logP under setting [5] is reported as 6.16*.

As for `O=C(O)c1cccc(Nc2ncc(Cl)c(NC3CC3)n2)c1` [compound 785], the logP under setting [2] is reported as 1.32*.

With `CSc1cccc(Nc2ncc(Cl)c(NC3CC3)n2)c1` [Example 74], the logP under setting [5] is recorded as 2.21*.

With `CCC(=O)Nc1cc(Nc2ncc(Br)c(NC3CC3)n2)ccc1O` [compound 767], the logP under setting [1] is given as 1.85*.

As for `COc1cc(Nc2ncc(Br)c(NCC3CC3)n2)cc(OC)c1OC` [compound 190], the logP under setting [4] is 1.88*.

On to `CC(=O)Nc1ccc(Nc2ncc(Cl)c(NC3CC3)n2)cc1.Cc1ccc(S(=O)(=O)O)cc1` [compound 434], for which the logP under setting [5] is 1.02*.

On to `CC(C)Sc1ccccc1Nc1ncc(Cl)c(NC2CC2)n1` [compound 885], for which the logP under setting [1] is 3.72*.

`CC(=O)N(C)c1ccc(Nc2ncc(Br)c(NC3CC3)n2)cc1` [compound 349]: the logP under setting [8] is recorded as 1.54*.

Take `Nc1ccc(Nc2ncc(Cl)c(NC3CC3)n2)cc1` [compound 272]: the logP runs as follows: (HPLC on reversed-phase C18, method **: 43° C., mobile phase 0.1% aqueous phosphoric acid and acetonitrile, linear gradient 10% to 95% acetonitrile) 0.48**; under setting [8], 0.45*;.

In the case of `CC(C)(C)C(=O)Nc1cccc(Nc2ncc(Cl)c(NC3CC3)n2)c1` [Example 91], the logP under setting [5] was 1.98*.

Take `N#Cc1cnc(Nc2ccc3c(c2)CC(=O)N3)nc1NC1CC1` [compound 613]: under setting [6], the logP is 1.5*.

Consider `Cc1ccc(Nc2ncc(Br)c(NC3CC3)n2)cc1O` [compound 366], for which the logP under setting [5] is recorded as 1.46*.

In the case of `COCCc1cccc(Nc2ncc(C(F)(F)F)c(NC3CC3)n2)c1` [compound 1039], the logP (method **: HPLC, reversed-phase C 18, 43° C., mobile phase 0.1% aqueous phosphoric acid and acetonitrile, linear gradient from 10% to 95% acetonitrile) is given as 2.88**.

`Brc1cnc(Nc2ccccc2)nc1NC1(COc2ccccc2)CC1` [compound 932]: under setting [1], the logP is given as 3.03*.

In the case of `CCSC(C)c1cccc(Nc2ncc(C(F)(F)F)c(NC3CC3)n2)c1` (stereo not shown) [compound 987], under setting [7], the logP is 4.19*.

The values are drawn from patent US20100081679A1, “DIAMINOPYRIMIDINES AS FUNGICIDES” (Bayer CropScience AG, priority 2007, published 2010).
